Experimental data reported in PubChem BioAssay AID330 (DTP/NCI, 2004).
“And” between values parts separate entries of the source, which are not always exact repeats. Identical values can stand only once. Inconclusive results and toxic doses are left out. Rule for the calls: active = survival T/C of 150% or more; inactive = T/C below 125% in these data. Peptide text beside a SMILES is read from it. * marks the point of attachment. For = O=C*

Tested on: P388 leukemia ip, CD2F1 mice, survival T/C
Experiment: NCI In Vivo Anticancer Drug Screen. Data for tumor model P388 Leukemia (intraperitoneal) in CD2F1 (CDF1) mice
Conditions: endpoint: median survival time, higher = longer survival
Description: The antitumor activity of compounds was measured in mice bearing transplantable tumors. Survival or tumor size were measured and the results are expressed as the measurement made in the treated group (T) divided by the measurement made in the vehicle treated control group (C). The tumor model used in this assay is P388 Leukemia (intraperitoneal) in CD2F1 (CDF1) mice

[1] = dose: 50.0 mg/kg/injection, schedule: Q01DX005 (ip), vehicle: saline with Tween-80
[2] = dose: 100.0 mg/kg/injection, schedule: Q01DX005 (ip), vehicle: saline with Tween-80
[3] = dose: 200.0 mg/kg/injection, schedule: Q01DX005 (ip), vehicle: saline with Tween-80
[4] = dose: 50.0 mg/kg/injection, schedule: Q01DX009 (ip), vehicle: saline
[5] = dose: 100.0 mg/kg/injection, schedule: Q01DX009 (ip), vehicle: saline
[6] = dose: 100.0 mg/kg/injection, schedule: Q04DX003 (ip), vehicle: saline
[7] = dose: 200.0 mg/kg/injection, schedule: Q01DX009 (ip), vehicle: saline
[8] = dose: 200.0 mg/kg/injection, schedule: Q04DX003 (ip), vehicle: saline
[9] = dose: 400.0 mg/kg/injection, schedule: Q04DX003 (ip), vehicle: saline
[10] = dose: 50.0 mg/kg/injection, schedule: Q01DX009 (ip), vehicle: saline with Tween-80
[11] = dose: 100.0 mg/kg/injection, schedule: Q01DX009 (ip), vehicle: saline with Tween-80
[12] = dose: 200.0 mg/kg/injection, schedule: Q01DX009 (ip), vehicle: saline with Tween-80
[13] = dose: 25.0 mg/kg/injection, schedule: Q01DX005 (ip), vehicle: saline
[14] = dose: 50.0 mg/kg/injection, schedule: Q01DX005 (ip), vehicle: saline
[15] = dose: 100.0 mg/kg/injection, schedule: Q01DX005 (ip), vehicle: saline
[16] = dose: 200.0 mg/kg/injection, schedule: Q01DX005 (ip), vehicle: saline

Measured: T/C

Cc1ccc(S(=O)(=O)OCC(C)(C)CC#N)cc1
inactive: dose: 100.0 mg/kg/injection, schedule: Q04DX003 (ip), vehicle: Klucel (hydroxypropylcellulose) (HPC) 96 % of control | dose: 200.0 mg/kg/injection, schedule: Q04DX003 (ip), vehicle: Klucel (hydroxypropylcellulose) (HPC) 96 % of control | dose: 400.0 mg/kg/injection, schedule: Q04DX003 (ip), vehicle: Klucel (hydroxypropylcellulose) (HPC) 100 % of control

COc1cc2cc(c1Cl)N(C)C(=O)/C=C/C1(C)OC1C(C)C1CC(O)(NC(=O)O1)C(OC)/C=C/C=C(\C)C2OC (configuration not stated)
inactive: dose: 4.0 micrograms/kg/injection, schedule: Q01DX009 (ip), vehicle: distilled water + alcohol 103 % of control | dose: 8.0 micrograms/kg/injection, schedule: Q01DX009 (ip), vehicle: distilled water + alcohol 100 % of control | dose: 64.0 micrograms/kg/injection, schedule: Q01DX009 (ip), vehicle: distilled water + alcohol 99 % of control | dose: 128.0 micrograms/kg/injection, schedule: Q01DX009 (ip), vehicle: distilled water + alcohol 91 % of control

C(=NCCN=Cc1cc2c(c3ccccc13)CCCC2)c1cc2c(c3ccccc13)CCCC2
inactive: [1] 96 % of control | [2] 91 % of control | [3] 88 % of control

CCN(CC)CCO[C@H]1CC[C@@]2(C)C(=CC[C@@H]3[C@@H]2CC[C@]2(C)C(=O)CC[C@@H]32)C1
inactive: dose: 5.0 mg/kg/injection, schedule: Q01DX009 (ip), vehicle: saline with Tween-80 104 % of control | dose: 5.0 mg/kg/injection, schedule: Q04DX003 (ip), vehicle: saline with Tween-80 91 % of control | dose: 10.0 mg/kg/injection, schedule: Q01DX009 (ip), vehicle: saline with Tween-80 91 % of control | dose: 10.0 mg/kg/injection, schedule: Q04DX003 (ip), vehicle: saline with Tween-80 91 % of control | dose: 20.0 mg/kg/injection, schedule: Q01DX009 (ip), vehicle: saline with Tween-80 95 % of control | dose: 20.0 mg/kg/injection, schedule: Q04DX003 (ip), vehicle: saline with Tween-80 100 % of control

O=C(O)C/[N+]([O-])=N\O
inactive: [4] 102 % of control | [5] 102 % of control | [6] 104 % of control | [7] 96 % of control | [8] 105 % of control | dose: 400.0 mg/kg/injection, schedule: Q01DX009 (ip), vehicle: saline 94 % of control | [9] 92 % of control

CCN(CC)CC(C)Nc1ccc([N+](=O)[O-])c2sc3ccccc3c(=O)c12 (configuration not stated)
inactive: dose: 6.25 mg/kg/injection, schedule: Q01DX009 (ip), vehicle: saline 113 % of control | dose: 12.5 mg/kg/injection, schedule: Q04DX003 (ip), vehicle: saline with Tween-80 115 % of control | dose: 25.0 mg/kg/injection, schedule: Q04DX003 (ip), vehicle: saline with Tween-80 120 % of control
active: [10] 172 % of control | [4] 186 % of control | dose: 132.0 mg/kg/injection, schedule: Q04DX003 (ip), vehicle: saline with Tween-80 163 % of control | dose: 200.0 mg/kg/injection, schedule: Q04DX003 (ip), vehicle: saline with Tween-80 154 % of control

COC(C(=O)O)(c1ccccc1)C(F)(F)F (configuration not stated)
inactive: dose: 60.0 mg/kg/injection, schedule: Q01DX005 (ip), vehicle: saline 100 % of control | dose: 120.0 mg/kg/injection, schedule: Q01DX005 (ip), vehicle: saline 109 % of control

O=C(N/N=C/c1ccco1)C(=O)Nc1ccc(Cl)c([N+](=O)[O-])c1
inactive: [1] 91 % of control | [2] 89 % of control | [3] 105 % of control

O=NNc1ccc(-c2ccc(NN=O)cc2)cc1
inactive: dose: 3.12 mg/kg/injection, schedule: Q01DX009 (ip), vehicle: water 97 % of control | dose: 6.25 mg/kg/injection, schedule: Q01DX009 (ip), vehicle: water 95 % of control | dose: 12.5 mg/kg/injection, schedule: Q01DX009 (ip), vehicle: water 97 % of control | dose: 25.0 mg/kg/injection, schedule: Q01DX009 (ip), vehicle: water 100 % of control and 89 % of control | dose: 50.0 mg/kg/injection, schedule: Q01DX009 (ip), vehicle: water 89 % of control and 94 % of control | dose: 100.0 mg/kg/injection, schedule: Q01DX009 (ip), vehicle: water 88 % of control | dose: 200.0 mg/kg/injection, schedule: Q01DX009 (ip), vehicle: water 91 % of control

O=S(=O)(Oc1cccc2ccccc12)C(F)(F)C(F)(F)C(F)(F)C(F)(F)F
inactive: [10] 108 % of control | [11] 108 % of control | [12] 105 % of control

O=C1CN(C2OC(CO)C(O)C2O)C(=O)NC1=O (configuration not stated)
inactive: [13] 112 % of control | [14] 113 % of control | dose: 50.0 mg/kg/injection, schedule: Q01DX005 (ip), vehicle: suspension in saline 100 % of control | [15] 99 % of control and 116 % of control | dose: 100.0 mg/kg/injection, schedule: Q01DX005 (ip), vehicle: suspension in saline 107 % of control | [16] 116 % of control | dose: 200.0 mg/kg/injection, schedule: Q01DX005 (ip), vehicle: suspension in saline 109 % of control | dose: 400.0 mg/kg/injection, schedule: Q01DX005 (ip), vehicle: suspension in saline 116 % of control

CC1=C(C)CN(CCC(=O)O)C(C(N)=O)C1 (configuration not stated)
inactive: [14] 100 % of control | [15] 107 % of control | [16] 100 % of control

CSC(=S)N/N=C(\C)c1cccs1
inactive: [10] 91 % of control | [11] 111 % of control | [12] 110 % of control

CC(C(=O)O)N1C(=O)C=CC1=O (configuration not stated)
inactive: dose: 12.5 mg/kg/injection, schedule: Q01DX009 (ip), vehicle: saline with Tween-80 97 % of control | dose: 25.0 mg/kg/injection, schedule: Q01DX009 (ip), vehicle: saline with Tween-80 91 % of control

CC(NC=O)C(=O)NCC(=O)NC(CO)C(=O)NC(CCC(=O)O)C(=O)O (configuration not stated) (For-AGSE-OH; configuration not given here)
inactive: dose: 7.81 mg/kg/injection, schedule: Q01DX005 (ip), vehicle: water 105 % of control | dose: 15.63 mg/kg/injection, schedule: Q01DX005 (ip), vehicle: water 104 % of control | dose: 31.25 mg/kg/injection, schedule: Q01DX005 (ip), vehicle: water 101 % of control | dose: 62.5 mg/kg/injection, schedule: Q01DX005 (ip), vehicle: water 101 % of control | dose: 125.0 mg/kg/injection, schedule: Q01DX005 (ip), vehicle: water 99 % of control

CCOC(=O)C1=NN2C(O)C3(C)CC(C(=O)OCC)=NN3C(O)C2(C)C1 (configuration not stated)
inactive: [4] 105 % of control | [5] 107 % of control | [7] 99 % of control

CC(=O)OC1C=CN(C(C)=O)C(SC(C)(C)C)C1(C)O (configuration not stated)
inactive: dose: 50.0 mg/kg/injection, schedule: Q01DX009 (ip), vehicle: Klucel (hydroxypropylcellulose) (HPC) 101 % of control and 119 % of control | dose: 100.0 mg/kg/injection, schedule: Q01DX009 (ip), vehicle: Klucel (hydroxypropylcellulose) (HPC) 107 % of control and 112 % of control | dose: 200.0 mg/kg/injection, schedule: Q01DX009 (ip), vehicle: Klucel (hydroxypropylcellulose) (HPC) 113 % of control and 120 % of control | dose: 400.0 mg/kg/injection, schedule: Q01DX009 (ip), vehicle: Klucel (hydroxypropylcellulose) (HPC) 110 % of control

CCCCN(CCCC)CCCNc1c2c(nc3ccccc13)CCCC2
inactive: dose: 12.5 mg/kg/injection, schedule: Q01DX005 (ip), vehicle: saline 95 % of control | [13] 104 % of control | [14] 100 % of control

CCOC(=O)NC(NC(=O)OCC)c1cccc([N+](=O)[O-])c1
inactive: [6] 91 % of control | [8] 95 % of control | [9] 91 % of control

C/C(=N\NC(=O)Cc1ccccc1)C(=O)O
inactive: dose: 50.0 mg/kg/injection, schedule: Q01DX005 (ip), vehicle: Klucel (hydroxypropylcellulose) (HPC) 100 % of control | dose: 100.0 mg/kg/injection, schedule: Q01DX005 (ip), vehicle: Klucel (hydroxypropylcellulose) (HPC) 89 % of control | dose: 200.0 mg/kg/injection, schedule: Q01DX005 (ip), vehicle: Klucel (hydroxypropylcellulose) (HPC) 94 % of control
